According to US7101872B2, “Farnesyl dibenzodiazepinone, and processes for its production” (Ecopia BioSciences, Inc., priority 2003, dated 2006):

Key:
Assay in all cases: NCI panel SRB growth inhibition
Assay type in all cases: cell-based
[1] = system: ACHN; conditions: Homo sapiens, Renal, 48 h
Method: (§1) The operation of this unique screen utilizes […] different human tumor cell lines, representing leukemia, melanoma and cancers of the lung, colon, brain, ovary, breast, prostate, and kidney.
(§2) Culture conditions and plating: The human tumor cell lines of the cancer-screening panel were grown in RPMI 1640 medium containing 5% fetal bovine serum and 2 mM L-glutamine. For a typical screening experiment, cells were inoculated into 96 well microtiter plates in 100 μL at plating densities ranging from 5,000 to 40,000 cells/well depending on the doubling time of individual cell lines (Table 5). After cell inoculation, the microtiter plates were incubated at 37° C., 5% CO2, 95% air and 100% relative humidity for 24 h prior to addition of experimental drugs. After 24 h, two plates of each cell line were fixed in situ with TCA, to represent a measurement of the cell population for each cell line at the time of drug addition (Tz). Evaluation of inhibitory activity on cell proliferation: ECO-04601 was provided as a lyophilized powder with an estimated purity of 90+%. The compound was stored at −20° C. until day of use. ECO-04601 was solubilized in dimethyl sulfoxide at 400-fold the desired final maximum test concentration. At the time of drug addition, an aliquot of frozen concentrate was thawed and diluted to twice the desired final maximum test concentration with complete medium containing 50 μg/mL gentamicin. Additional four, 10-fold or Y2 log serial dilutions were made to provide a total of five drug concentrations plus control. Aliquots of 100 μl of these different drug dilutions were added to the appropriate microtiter wells already containing 100 μl of medium, resulting in the required final drug concentrations (8.0×10^−5 M to 8.0×10^−9 M).
(§3) Following drug addition, the plates were incubated for an additional 48 h at 37° C., 5% CO2, 95% air, and 100% relative humidity. For adherent cells, the assay was terminated by the addition of cold TCA. Cells were fixed in situ by the gentle addition of 50 μl of cold 50% (w/v) TCA (final concentration, 10% TCA) and incubated for 60 minutes at 4° C. Supernatants were discarded, and the plates were washed five times with tap water and air-dried. Sulforhodamine B (SRB) solution (100 μl) at 0.4% (w/v) in 1% acetic acid was added to each well, and plates were incubated for 10 minutes at room temperature. After staining, unbound dye was removed by washing five times with 1% acetic acid and the plates were air-dried. Bound stain was subsequently solubilized with 10 mM trizma base, and the absorbance was read on an automated plate reader at a wavelength of 515 nm. For suspension cells, the methodology was the same except that the assay was terminated by fixing settled cells at the bottom of the wells by gently adding 50 μl of 80% TCA (final concentration, 16% TCA).
(§4) The growth inhibitory activity of ECO-04601 was measured by NCI utilizing the GI50 value, rather than the classical IC50 value.

[2] = system: BT-549; conditions: Homo sapiens, BT-549, Breast, 48 h
Method: as §1, §2, §3, §4

[3] = system: CAKI-1; conditions: Homo sapiens, CAKI-1, Renal, 48 h
Method: as §1, §2, §3, §4

[4] = system: CCRF-CEM; conditions: Homo sapiens, Leukemia, 48 h
Method: as §1, §2, §3, §4

[5] = system: DU-145; conditions: Homo sapiens, DU-145, Prostate, 48 h
Method: as §1, §2, §3, §4

[6] = system: EKVX; conditions: Homo sapiens, Non-Small Cell Lung, 48 h
Method: as §1, §2, §3, §4

[7] = system: HCT-116; conditions: Homo sapiens, HCT-116, Colon, 48 h
Method: as §1, §2, §3, §4

[8] = system: HCT-15; conditions: Homo sapiens, HCT-15, Colon, 48 h
Method: as §1, §2, §3, §4

[9] = system: K-562; conditions: Homo sapiens, K562, K-562, Leukemia, 48 h
Method: as §1, §2, §3, §4

[10] = system: LOX IMVI; conditions: Homo sapiens, Melanoma, 48 h
Method: as §1, §2, §3, §4

[11] = system: MCF7; conditions: Homo sapiens, MCF7, Breast, 48 h
Method: as §1, §2, §3, §4

[12] = system: MDA-MB-231/ATCC; conditions: Homo sapiens, Breast, 48 h
Method: as §1, §2, §3, §4

[13] = system: MDA-MB-435; conditions: Homo sapiens, MDA-MB-435, Breast, 48 h
Method: as §1, §2, §3, §4

[14] = system: NCI-H23; conditions: Homo sapiens, NCI-H23, Non-Small Cell Lung, 48 h
Method: as §1, §2, §3, §4

[15] = system: NCI-H460; conditions: Homo sapiens, NCI-H460, Non-Small Cell Lung, 48 h
Method: as §1, §2, §3, §4

[16] = system: NCI-H522; conditions: Homo sapiens, NCI-H522, Non-Small Cell Lung, 48 h
Method: as §1, §2, §3, §4

[17] = system: OVCAR-8; conditions: Homo sapiens, OVCAR-8, Ovarian, 48 h
Method: as §1, §2, §3, §4

[18] = system: RPMI-8226; conditions: Homo sapiens, RPMI-8226, Leukemia, 48 h
Method: as §1, §2, §3, §4

[19] = system: SF-295; conditions: Homo sapiens, SF-295, CNS, 48 h
Method: as §1, §2, §3, §4

[20] = system: SF-539; conditions: Homo sapiens, SF-539, CNS, 48 h
Method: as §1, §2, §3, §4

[21] = system: SK-MEL-2; conditions: Homo sapiens, SK-MEL-2, Melanoma, 48 h
Method: as §1, §2, §3, §4

[22] = system: SK-MEL-5; conditions: Homo sapiens, SK-MEL-5, Melanoma, 48 h
Method: as §1, §2, §3, §4

[23] = system: SW-620; conditions: Homo sapiens, SW-620, Colon, 48 h
Method: as §1, §2, §3, §4

[24] = system: UACC-257; conditions: Homo sapiens, UACC-257, Melanoma, 48 h
Method: as §1, §2, §3, §4

[25] = system: UACC-62; conditions: Homo sapiens, UACC-62, Melanoma, 48 h
Method: as §1, §2, §3, §4

[26] = system: UO-31; conditions: Homo sapiens, UO-31, Renal, 48 h
Method: as §1, §2, §3, §4

For `CC(C)=CCC/C(C)=C/CC/C(C)=C/CN1C(=O)c2cccc(O)c2Nc2c(O)cc(O)cc21` [ECO-04601, 10-farnesyl-4,6,8-trihydroxy-dibenzodiazepin-11-one], the GI50 [1] was 3.1 µM, the GI50 [2] was 0.11 µM and the GI50 [3] was 15.2 µM. It also gave a GI50 [4] of 1.08 µM, a GI50 [5] of 3.56 µM and a GI50 [6] of 0.23 µM. It also gave a GI50 [7] of 2.92 µM, a GI50 [8] of 9.73 µM and a GI50 [9] of 1.43 µM. It also gave a GI50 [10] of 4.53 µM, a GI50 [11] of 10.1 µM and a GI50 [12] of 2.72 µM. The GI50 [13] was 15.3 µM, the GI50 [14] was 2.02 µM and the GI50 [15] was 13.6 µM. It also gave a GI50 [16] of 3.44 µM, a GI50 [17] of 2.65 µM and a GI50 [18] of 3.15 µM. The GI50 [19] was 12.7 µM, the GI50 [20] was 0.0075 µM and the GI50 [21] was 25 µM. For the same compound, the GI50 [22] was 7.8 µM, the GI50 [23] was 2.72 µM and the GI50 [24] was 2.31 µM. It also gave a GI50 [25] of 1.55 µM and a GI50 [26] of 19.7 µM.
